The values that follow come from US8309578B2, “Bicyclic pyrazole and isoxazole derivatives as antitumor and antineurodegenerative agents” (Nerviano Medical Sciences S.r.l., priority 2008, dated 2012).

The test has as its system Her2 protein levels in BT474 breast cancer cells. The test is described as follows: Her2 degradation in BT474 breast cancer cells (immunocytochemistry, ArrayScan vTi), marker for Hsp90 inhibition. Type of test: cell-based. Conditions: Homo sapiens, BT-474, 8 h treatment, concentration at which cellular Her2 signal is diminished by 50% vs untreated controls. On the procedure:
The potency of the compounds of formula (I) were evaluated by measuring the Her2 degradation as a marker for Hsp90 inhibition.
Hsp90 is a key component of a chaperone machinery that catalyzes the folding and quality control of several proteins. Its inhibition impairs the capacity to fold or stabilize its client proteins, leading to the proteosomal dependent degradation of these unfolded proteins. At the moment there is an increasing number (>100) of reported Hsp90 clients, but one of the most frequently way to detect Hsp90 chaperone inhibition is the detection of Her2 protein levels after short time treatment (usually 8-24 h), in order to be sure about the specificity of this effect.
Cellular activity of Hsp90 inhibitors was assessed by measuring the induced loss of Her2 protein levels in BT474 breast cancer cells (ATCC #HTB-20). Cellular Her2 levels were measured by immunocytochemistry, and quantified using an ArrayScan vTi instrument (Cellomics Thermo Scientific).
Studies were performed as follows: 5000 cells/well are seeded in 96 well plates (Perkin Elmer) in DMEM/5% FCS and incubated for 48 h at 37° C., under 5% CO2.
Medium is then replaced with fresh medium containing test compounds at the required concentration. Concentration curves are prepared in DMEM/10% FCS from compound stocks in DMSO, and final DMSO concentration is 0.1% (v/v). Duplicate wells for each concentration point are prepared, with a typical highest compound concentration of 30 μM. After addition of compound, plates are returned to the incubator for 8 h, then fixed by replacing medium with PBS containing 3.7% paraformaldehyde solution. Plates are incubated for 20 minutes at room temperature, then wells are washed in PBS and cells permiabilised by incubating with PBS containing 0, 3% Triton X-100 for 15 minutes at room temperature. Non-specific binding sites are blocked by incubating wells for 1 h in PBS containing 3% (w/v) BSA. Wells are then incubated for 1 h at room temperature in PBS containing anti Her2 mouse monoclonal (Anti-c-ErbB2/c-Neu, Mouse mAb 3B5, Calbiochem Cat No OP15) diluted 1:100 in 1% (w/v) BSA. After 3 washes in PBS, wells are incubated in PBS (w/v) 1% BSA containing a 2 μg/ml of Cy2-conjugated Goat anti mouse secondary antibody (Amersham Pharmacia Biothech cat. No PA 42002) (Absorption maximum 489 nm fluorescence maximum 506 nm) and 1 μg/ml of DAPI (Absorption maximum 359 nm fluorescence maximum 461 nm) (4′,6-Diamidino-2-phenylindole, dilactate) (Sigma cat. No D 9564) a high sensitivity dye to detect nucleid acid for nuclear staining. After washing a further 3 times in PBS, cellular Her2 immunoreactivity is assessed using the ArrayScan vTi instrument, with a Zeiss 10×0.5 N.A. objective, and applying the Cytotoxity.V3 algorithm (Cellomics/Thermo Fisher) with a XF100 filter. At least 10 fields, corresponding to at least 900 cells, are read for each well. IC50 values represent the compound concentration at which cellular Her2 signal is diminished by 50% compared with untreated controls.
The following formula is used: IC50=Bottom+(Top−Bottom)/(1+10^((Log EC50−X)));
X is the logarithm of concentration. IC50 is the response; IC50 starts at Bottom and goes to Top with a sigmoid shape. The compounds of formula (I) tested as described above, result to induce the degradation of Her2 protein.
Regarding `COc1ccc(CN2CCc3[nH]nc(-c4cc(Cl)c(O)cc4O)c3C2)cc1OC` [compound 40, 4-chloro-6-[5-(3,4-dimethoxybenzyl)-4,5,6,7-tetrahydro-1H-pyrazolo[4,3-c]pyridin-3-yl]benzene-1,3-diol], it took 4 µM to reach half-maximal inhibition (IC50). This lies in the single-digit micromolar range.
The figure for `O=C(c1ccc(-n2ccnc2)cc1)N1CCc2[nH]nc(-c3cc(Cl)c(O)cc3O)c2C1` [compound 16, [3-(5-chloro-2,4-dihydroxyphenyl)-1,4,6,7-tetrahydro-5H-pyrazolo[4,3-c]pyridin-5-yl][4-(1H-imidazol-1-yl)phenyl]methanone] is 8.3 µM.
As to `Oc1cc(O)c(-c2onc3c2CN(Cc2ccc(-n4ccnc4)cc2)CC3)cc1Cl` [compound 67, 4-chloro-6-{5-[4-(1H-imidazol-1-yl)benzyl]-4,5,6,7-tetrahydroisoxazolo[4,3-c]pyridin-3-yl}benzene-1,3-diol], the IC50 (in general, the midpoint of a concentration-inhibition curve) was 8.7 µM.
The figure for `Oc1cc(O)c(-c2n[nH]c3c2CN(Cc2ccc(-n4ccnn4)cc2)CC3)cc1Cl` [compound 49, 4-chloro-6-{5-[4-(1H-1,2,3-triazol-1-yl)benzyl]-4,5,6,7-tetrahydro-1H-pyrazolo[4,3-c]pyridin-3-yl}benzene-1,3-diol] is 3.4 µM; for `O=C(C1CCC2(CC1)OCCO2)N1CCc2n[nH]c(-c3cc(Cl)c(O)cc3O)c2C1` [compound 14, [3-(5-chloro-2,4-dihydroxyphenyl)-1,4,6,7-tetrahydro-5H-pyrazolo[4,3-c]pyridin-5-yl](1,4-dioxaspiro[4.5]dec-8-yl)methanone] it is 1.1 µM; for `CO[C@H]1CC[C@H](C(=O)N2CCc3[nH]nc(-c4cc(Cl)c(O)cc4O)c3C2)CC1` [compound 17, [3-(5-chloro-2,4-dihydroxyphenyl)-1,4,6,7-tetrahydro-5H-pyrazolo[4,3-c]pyridin-5-yl](trans-4-methoxycyclohexyl)methanone] it is 3 µM.
